Literature values in patent CN102028697A, “含非离子表面活性剂的拉坦前列素滴眼液及制备方法” (SHANGHAI SINE PHARMACEUTICAL CO Ltd, priority 2009, dated 2011).

Assays:
[1] = in water

In the case of `CC(C)OC(=O)CCC/C=C\C[C@@H]1[C@@H](CC[C@@H](O)CCc2ccccc2)[C@H](O)C[C@@H]1O` [拉坦前列素], the solubility [1] is listed as “几乎不溶” and the “permissible time at 40℃” value is listed as no more than 8 days.
